In patent publication US12583938B2, “Protein biomarker and uses thereof” (Daiichi Sankyo Co., Ltd., priority 2013, dated 2026):

System: Stage IIIb/IV NSCLC
Method: In both portions of the study, subjects received 150 mg of erlotinib orally once daily. […] Tumors were to be assessed every 6 weeks (±3 days) up to the first 24 weeks of the study, then every 12 weeks (±7 days) independent of treatment cycle.
An “HRG high” subject was defined as a subject with observed soluble HRG concentration of higher than 980 pg/mL, the Quartile 3 of the sample set. Soluble HRC concentration was measured by the improved ELISA method disclosed herein.
At the point of primary analysis, the treatment assignment for all subjects was unblinded to designated study personnel for analysis after data were reconciled and cleaned, and a snapshot of the clean database was created. To minimize potential bias, individual treatment assignment was not divulged to subjects or Investigators until study closure.
All efficacy analyses were performed on the full analysis set, which includes all subjects in the randomized analysis set who received at least one dose of randomized study medication. The primary efficacy endpoint was PFS. PFS is defined as the time from the date of randomization to the earlier of the dates of the first objective documentation of radiographic disease progression or death due to any cause. A subject who was alive with no objective documentation of (radiographic) disease progression by the data cut-off date was to be censored at the date of the last evaluable tumor assessment. The key secondary efficacy endpoint, overall survival, was defined as the time from the date of randomization to death due to any cause and was analyzed in the same manner as the primary efficacy endpoint PFS.
Kaplan-Meier curves were generated for PFS and used to calculate medians and 95% CIs for each treatment group.
The stratification factors included histology (Adenocarcinoma vs Non-Adenocarcinoma) and best response to prior therapy (CR/PR/SD vs PD). […] Cox's proportional hazards model with the same stratification factors used for the stratified log-rank test.
Unless otherwise indicated, tog-rank p-values and HRs for PFS and OS were based on the primary analysis adjusted for the stratification factors at randomization as described above.

[1] = Placebo + erlotinib (N = 71), Enrolled/Randomized Analysis Set
[2] = Placebo + erlotinib (N = 71), Full Analysis Set

With `C#Cc1cccc(Nc2ncnc3cc(OCCOC)c(OCCOC)cc23)c1` [erlotinib, reference compound] the “On-Study Death” value [1] was 13 subjects, the “Primary Cause of On-Study Death: Adverse Event” value [1] was 5 subjects and the “Primary Cause of On-Study Death: Disease Progression” value [1] was 8 subjects. For the same compound, the “Primary Reason for Discontinuing Study Treatment: Death” value [1] was 4 subjects, the “Primary Reason for Discontinuing Study Treatment: Progressive Disease (Radiographic Progression)” value [1] was 50 subjects and the “OS: Subjects (%) with events” value [2] was 48 (67.6%) subjects (%). For the same compound, the “OS: Subjects (%) without events (censored)” value [2] was 23 (32.4%) subjects (%), the “PFS: Subjects (%) with events” value [2] was 59 (83.1%) subjects (%) and the “PFS: Subjects (%) without events (censored)” value [2] was 12 (16.9%) subjects (%). The “Progression-Free Survival, Time to event, Median” value (Placebo + erlotinib (N = 71), Full Analysis Set, Kaplan-Meier Estimate) was 1.6 months, the “Overall Survival, Time to event, Median” value (Placebo + erlotinib (N = 71), Full Analysis Set, Kaplan-Meier Estimate, preliminary) was 7.2 months and the “number of subjects with the response being CR/PR” value (placebo + erlotinib) was 4 (5.6%) subjects (%).
